Experiment [1] relates to Salmonella enterica serovar Typhimurium SL1344.
The test system is the same in experiment [2]. The experiment can be described thus: intracellular MIC (10-fold luminescence reduction); higher = less potent. Particulars: RAW264.7 macrophages.
The subject of the next experiment is RAW264.7. The experiment can be described thus: cytotoxicity (LDH release relative to maximum lysis); higher = more toxic. To be noted: 50 µM; 2 h. Background: Release of lactate dehydrogenase indicates damage to the cell membrane.

Each structure is given as a SMILES string. In brackets after ≈: the same amount, converted by molar mass. Where a name gives a salt, the structure may show the parent alone. Where only a bound is given, the exact number is not on record here.

By MIC is commonly meant the smallest concentration in the dilution series that meets the test's criterion for growth inhibition. As for `CN(C)[C@@H]1C(O)=C(C(N)=O)C(=O)[C@@]2(O)C(O)=C3C(=O)c4c(O)ccc(Cl)c4[C@@](C)(O)[C@H]3C[C@@H]12` [CHLORTETRACYCLINE HYDROCHLORIDE], the minimum inhibitory concentration (MIC) in experiment [1] (LPM pH 5.8) was not above 0.78 µM; in experiment [1] (MHB) it was 25 µM; in experiment [1] (MOPS glucose minimal medium), 6.25 µM. For the same compound, the “intracellular MIC” value in experiment [2] was not above 0.78 µM. This compound also came in with a cytotoxicity with RAW264.7 of 8.37%.
On to `CN(C)CC(c1ccc(O)cc1)C1(O)CCCCC1` (stereo not given) [DESVENLAFAXINE SUCCINATE], for which the MIC in experiment [1] (LPM pH 5.8), in experiment [1] (MHB) and in experiment [1] (MOPS glucose minimal medium) was more than 50 µM each time. Further, the “intracellular MIC” value in experiment [2] stood at 25 µM. This compound also showed a cytotoxicity with RAW264.7 of 8.25%.
As to `COc1ccc(C(=O)c2ccccc2)c(O)c1` [OXYBENZONE], the MIC in experiment [1] (LPM pH 5.8), in experiment [1] (MHB) and in experiment [1] (MOPS glucose minimal medium) was more than 50 µM each time. The “intracellular MIC” value in experiment [2] amounted to 1.56 µM. The cytotoxicity in the experiment with RAW264.7 was determined as 6.44%.
With `O.O.O=C([O-])CN(CCN(CC(=O)[O-])CC(=O)O)CC(=O)O.[Na+].[Na+]` [EDETATE DISODIUM], the figures for the MIC in experiment [1] (LPM pH 5.8), in experiment [1] (MHB) and in experiment [1] (MOPS glucose minimal medium) were more than 50 µM, more than 50 µM and 50 µM, respectively. Also, the “intracellular MIC” value in experiment [2] was more than 50 µM. Moreover, the cytotoxicity in the experiment with RAW264.7 came to 19.1%.
As to `CN(C)C(=O)Oc1ccc[n+](C)c1` [PYRIDOSTIGMINE BROMIDE], the minimum inhibitory concentration (MIC) in experiment [1] (LPM pH 5.8), in experiment [1] (MHB) and in experiment [1] (MOPS glucose minimal medium) was more than 50 µM each time. For the same compound, in experiment [2], the “intracellular MIC” value is more than 50 µM. The compound also displayed a cytotoxicity with RAW264.7 of 6.09%.
For the compound `CCCCC(=O)O[C@]1(C(=O)CO)[C@@H](C)C[C@H]2[C@@H]3CCC4=CC(=O)C=C[C@]4(C)[C@@]3(F)[C@@H](O)C[C@@]21C` [BETAMETHASONE VALERATE], the MIC in experiment [1] (LPM pH 5.8), in experiment [1] (MHB) and in experiment [1] (MOPS glucose minimal medium) was more than 50 µM in each case. For the same compound, in experiment [2], the “intracellular MIC” value was determined as 12.5 µM. In addition, the cytotoxicity in the experiment with RAW264.7 was determined as 6.63%.
Consider `CC(=O)[O][Hg][c]1ccccc1` [PHENYLMERCURIC ACETATE], for which the MIC in experiment [1] (LPM pH 5.8), in experiment [1] (MHB) and in experiment [1] (MOPS glucose minimal medium) was not above 0.78 µM each time. In addition, in experiment [2], the “intracellular MIC” value is not above 0.78 µM. The same compound had a cytotoxicity in the experiment with RAW264.7 of 22.2%.
In the case of `CN(C)[C@@H]1C(O)=C(C(N)=O)C(=O)[C@@]2(O)C(O)=C3C(=O)c4c(O)ccc(Cl)c4[C@@H](O)[C@H]3C[C@@H]12` [DEMECLOCYCLINE HYDROCHLORIDE], the minimal inhibitory concentration (MIC) is not above 0.78 µM in experiment [1] (LPM pH 5.8), 6.25 µM in experiment [1] (MHB) and 1.56 µM in experiment [1] (MOPS glucose minimal medium). Also, the “intracellular MIC” value in experiment [2] is not above 0.78 µM. This compound also registered a cytotoxicity in the experiment with RAW264.7 of 8.71%.
In the case of `COc1ccc(Cc2cnc(N)nc2N)cc1OC` [DIAVERIDINE], the minimum inhibitory concentration (MIC) was found to be 50 µM (≈ 13 µg/mL) in experiment [1] (LPM pH 5.8), 1.56 µM (≈ 0.406 µg/mL) in experiment [1] (MHB) and 6.25 µM (≈ 1.63 µg/mL) in experiment [1] (MOPS glucose minimal medium). Further, in experiment [2], the “intracellular MIC” value was determined as 1.56 µM. Also, the cytotoxicity with RAW264.7 amounted to 6.9%.
With `CO[C@H]1/C=C/O[C@@]2(C)Oc3c(C)c(O)c4c(O)c(c(/C=N/N5CCN(C)CC5)c(O)c4c3C2=O)NC(=O)/C(C)=C\C=C\[C@H](C)[C@H](O)[C@@H](C)[C@@H](O)[C@@H](C)[C@H](OC(C)=O)[C@@H]1C` [RIFAMPIN], the MIC in experiment [1] (LPM pH 5.8) was determined as 3.13 µM (≈ 2.58 µg/mL); in experiment [1] (MHB) it was 50 µM (≈ 41.1 µg/mL); in experiment [1] (MOPS glucose minimal medium) it was 25 µM (≈ 20.6 µg/mL). Further, the “intracellular MIC” value in experiment [2] is not above 0.78 µM. In the experiment with RAW264.7, this compound registered a cytotoxicity of 8.58%.
Taken in the same sequence, the figures for `CCOC(=O)C1=C(COCCN)NC(C)=C(C(=O)OC)C1c1ccccc1Cl` (stereo not given) [AMLODIPINE BESYLATE] were not above 0.78 µM, not above 0.78 µM, not above 0.78 µM, more than 50 µM and 22.5%.
Turning to `CO/N=C(\C(=O)N[C@@H]1C(=O)N2C(C(=O)O)=C(COC(C)=O)CS[C@H]12)c1csc(N)n1` [CEFOTAXIME SODIUM], the MIC in experiment [1] (LPM pH 5.8), in experiment [1] (MHB) and in experiment [1] (MOPS glucose minimal medium) was not above 0.78 µM throughout. Also, the “intracellular MIC” value in experiment [2] was not above 0.78 µM. In the experiment with RAW264.7, this compound displayed a cytotoxicity of 7.17%.
For the compound `CCn1cc(C(=O)O)c(=O)c2cc(F)c(N3CCN(C)CC3)cc21` [PEFLOXACINE MESYLATE], the MIC in experiment [1] (LPM pH 5.8), in experiment [1] (MHB) and in experiment [1] (MOPS glucose minimal medium) was not above 0.78 µM each time. In experiment [2], the “intracellular MIC” value was determined as 1.56 µM. Also, the cytotoxicity in the experiment with RAW264.7 came to 20.7%.
`O=C(O)CN(CCN(CC(=O)O)CC(=O)O)CC(=O)O.[Na+].[Na+].[Na+]` [TRISODIUM ETHYLENEDIAMINE TETRACETATE]: the MIC was 1.56 µM in experiment [1] (LPM pH 5.8), more than 50 µM in experiment [1] (MHB) and more than 50 µM in experiment [1] (MOPS glucose minimal medium). Further, the “intracellular MIC” value in experiment [2] is not above 0.78 µM. Besides, in the experiment on RAW264.7, the cytotoxicity was determined as 8.27%.
Take `CC(C)(O/N=C(\C(=O)N[C@@H]1C(=O)N2C(C(=O)[O-])=C(C[n+]3ccccc3)CS[C@H]12)c1csc(N)n1)C(=O)O` [CEFTAZIDIME]: the minimal inhibitory concentration (MIC) was not above 0.78 µM in experiment [1] (LPM pH 5.8), 12.5 µM (≈ 6.83 µg/mL) in experiment [1] (MHB) and not above 0.78 µM in experiment [1] (MOPS glucose minimal medium). In experiment [2], the “intracellular MIC” value is more than 50 µM. The compound also registered a cytotoxicity in the experiment on RAW264.7 of 20.8%.
For the compound `Cc1oc(=O)oc1CN1CCN(c2cc3c(cc2F)c(=O)c(C(=O)O)c2n3C(C)S2)CC1` (stereo not given) [PRULIFLOXACIN], the minimum inhibitory concentration (MIC) in experiment [1] (LPM pH 5.8), in experiment [1] (MHB) and in experiment [1] (MOPS glucose minimal medium) was not above 0.78 µM each time. Moreover, the “intracellular MIC” value in experiment [2] is not above 0.78 µM. The compound also registered a cytotoxicity in the experiment with RAW264.7 of 13.2%.

The record behind these values is the supplement of paper PMC6331611.
